Results from PubChem BioAssay (NCI).
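Values below derive from 48-hour exposures of cells grown in 96-well plates, with endpoints linearly interpolated between the two concentrations bracketing the appropriate inhibition level. GI50 is the concentration that inhibits growth by half. Definition used: TGI = concentration required for complete inhibition of growth.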

Assays:
Test in all cases: inhibition of tumour cell growth, NCI panel, 48 h
[1] = tested on: T-47D breast
[2] = tested on: COLO 205 colon
[3] = tested on: K-562 leukemia
[4] = tested on: SNB-75 CNS
[5] = tested on: OVCAR-5 ovarian
[6] = tested on: UO-31 renal
[7] = tested on: UACC-257 melanoma
[8] = tested on: CAKI-1 renal
[9] = tested on: SK-MEL-28 melanoma
[10] = tested on: MALME-3M melanoma
[11] = tested on: HT29 colon
[12] = tested on: HCT-15 colon
[13] = tested on: KM12 colon
[14] = tested on: NCI-H522 lung
[15] = tested on: MCF7 breast
[16] = tested on: MDA-MB-231 breast
[17] = tested on: EKVX NSCLC
[18] = tested on: SF-539 CNS
[19] = tested on: LOX IMVI melanoma
[20] = tested on: MOLT-4 leukemia
[21] = tested on: U251 CNS
[22] = tested on: 786-0 renal
[23] = tested on: DU-145 prostate
[24] = tested on: SK-MEL-5 melanoma
[25] = tested on: TK-10 renal
[26] = tested on: SN12C renal
[27] = tested on: CCRF-CEM leukemia
[28] = tested on: HCT-116 colon
[29] = tested on: PC-3 prostate
[30] = tested on: OVCAR-8 ovarian
[31] = tested on: MDA-MB-435
[32] = tested on: SF-268 CNS
[33] = tested on: SK-MEL-2 melanoma
[34] = tested on: RXF 393 renal
[35] = tested on: NCI-H226 lung
[36] = tested on: SK-OV-3 ovarian
[37] = tested on: NCI-H460 lung
[38] = tested on: ACHN renal
[39] = tested on: BT-549 breast
[40] = tested on: NCI-H23 lung
[41] = tested on: OVCAR-3 ovarian
[42] = tested on: OVCAR-4 ovarian
[43] = tested on: HCC-2998 colon
[44] = tested on: A549 NSCLC
[45] = tested on: SW-620 colon
[46] = tested on: UACC-62 melanoma
[47] = tested on: SR leukemia
[48] = tested on: NCI/ADR-RES ovarian
[49] = tested on: A498 renal
[50] = tested on: RPMI-8226 leukemia
[51] = tested on: HL-60(TB) leukemia
[52] = tested on: HS 578T breast
[53] = tested on: HOP-62 NSCLC
[54] = tested on: SF-295 CNS
[55] = tested on: HOP-92 NSCLC
[56] = tested on: IGROV1 ovarian
[57] = tested on: SNB-19 CNS
[58] = tested on: M14 melanoma

## C[C@]12CC[C@H](O)C[C@@H]1CC[C@@H]1[C@@H]2CC[C@@]2(C)[C@H]1CC[C@@H]2[C@](C)(O)CCc1ccc(F)cc1
[1]
  GI50: 1.95 µM
  TGI: 45.1 µM
[2]
  GI50: 8.81 µM
  TGI: 42.4 µM
[3]
  GI50: 1.88 µM
  TGI: > 100 µM
[4]
  GI50: 4.07 µM
  TGI: 26.9 µM
[5]
  GI50: 5.64 µM
  TGI: 19.6 µM
[6]
  GI50: 4.43 µM
  TGI: 31.4 µM
[7]
  GI50: 4.53 µM
  TGI: 35.5 µM
[8]
  GI50: 5.43 µM
  TGI: 20.1 µM
[9]
  GI50: 12.3 µM
  TGI: 26.4 µM
[10]
  GI50: 17.9 µM
  TGI: 41.8 µM
[11]
  GI50: 6.42 µM
  TGI: 36.7 µM
[12]
  GI50: 3.82 µM
  TGI: 18.3 µM
[13]
  GI50: 4.22 µM
  TGI: 19.4 µM
[14]
  GI50: 4.45 µM
  TGI: 49.4 µM
[15]
  GI50: 2.55 µM
  TGI: 15 µM
[16]
  GI50: 5.33 µM
  TGI: 20.5 µM
[17]
  GI50: 2.27 µM
  TGI: 18.1 µM
[18]
  GI50: 6.94 µM
  TGI: 20.8 µM
[19]
  GI50: 3.41 µM
  TGI: 15.1 µM
[20]
  GI50: 3.21 µM
  TGI: 24.6 µM
[21]
  GI50: 10.9 µM
  TGI: 31 µM
[22]
  GI50: 6.14 µM
  TGI: 21 µM
[23]
  GI50: 7.14 µM
  TGI: 23.7 µM
[24]
  GI50: 1.32 µM
  TGI: 6.81 µM
[25]
  GI50: 16.7 µM
  TGI: 56.4 µM
[26]
  GI50: 3.79 µM
  TGI: 15.7 µM
[27]
  GI50: 4.56 µM
  TGI: 59.7 µM
[28]
  GI50: 3.65 µM
  TGI: 16.4 µM
[29]
  GI50: 5.02 µM
  TGI: 30.7 µM
[30]
  GI50: 8.35 µM
  TGI: 62.7 µM
[31]
  GI50: 7.84 µM
  TGI: 25 µM
[32]
  GI50: 8.46 µM
  TGI: 25.4 µM
[33]
  GI50: 11.4 µM
  TGI: 51.9 µM
[34]
  GI50: 2.46 µM
  TGI: 10.8 µM
[35]
  GI50: 5.97 µM
  TGI: 24.8 µM
[36]
  GI50: 16.1 µM
  TGI: 76.2 µM
[37]
  GI50: 3.38 µM
  TGI: 14 µM
[38]
  GI50: 5.81 µM
  TGI: 18.9 µM
[39]
  GI50: 3.85 µM
  TGI: 17.5 µM
[40]
  GI50: 3.78 µM
  TGI: 18.4 µM
[41]
  GI50: 4.72 µM
  TGI: 16.7 µM
[42]
  GI50: 1.77 µM
  TGI: 18.4 µM
[43]
  GI50: 9.79 µM
  TGI: 23.8 µM
[44]
  GI50: 5.04 µM
  TGI: 39.2 µM
[45]
  GI50: 7.13 µM
  TGI: 24.1 µM
[46]
  GI50: 10.6 µM
  TGI: 26.7 µM
[47]
  GI50: 2.11 µM
  TGI: 22.3 µM
[48]
  GI50: 2.87 µM
  TGI: 13.9 µM
[49]
  GI50: 2.4 µM
  TGI: 15.6 µM
[50]
  GI50: 2.4 µM
  TGI: 43.9 µM
[51]
  GI50: 3.87 µM
  TGI: 24 µM
[52]
  GI50: 7.71 µM
  TGI: 37.9 µM
[53]
  GI50: 13.1 µM
  TGI: 43.9 µM
[54]
  GI50: 2.43 µM
  TGI: 10.9 µM
[55]
  GI50: 4.22 µM
  TGI: 22.5 µM
[56]
  GI50: 6.04 µM
  TGI: 20.7 µM
[57]
  GI50: 10.5 µM
  TGI: 25.1 µM

## O=C1Nc2cc(OC(F)(F)F)ccc2Oc2ccc(-c3ccnc(N4CC[C@H](O)C4)c3)cc21
[2]
  GI50: 0.0181 µM
  TGI: 0.0513 µM
[3]
  GI50: < 0.01 µM
  TGI: 1.73 µM
[58]
  GI50: 0.0114 µM
  TGI: 1.81 µM
[4]
  GI50: < 0.0163 µM
  TGI: 1.12 µM
[5]
  GI50: 0.0492 µM
  TGI: 6.37 µM
[6]
  GI50: 0.057 µM
  TGI: 5.63 µM
[7]
  GI50: 3.6 µM
  TGI: 9.37 µM
[8]
  GI50: < 0.01 µM
  TGI: 9.64 µM
[9]
  GI50: 1.2 µM
  TGI: 2.6 µM
[10]
  GI50: 0.0489 µM
  TGI: 2.09 µM
[11]
  GI50: 0.0163 µM
  TGI: 0.261 µM
[12]
  GI50: 0.0103 µM
  TGI: 2.86 µM
[13]
  GI50: < 0.0152 µM
  TGI: 2.47 µM
[14]
  GI50: < 0.0131 µM
  TGI: 0.0429 µM
[15]
  GI50: < 0.01 µM
  TGI: 1.62 µM
[16]
  GI50: 0.048 µM
  TGI: 1.83 µM
[17]
  GI50: 0.0435 µM
  TGI: 20.4 µM
[18]
  GI50: 0.0227 µM
  TGI: 1.04 µM
[19]
  GI50: 0.032 µM
  TGI: 1.49 µM
[20]
  GI50: 0.0327 µM
  TGI: 2.16 µM
[21]
  GI50: 0.0358 µM
  TGI: 1.85 µM
[22]
  GI50: 0.0316 µM
  TGI: 2.74 µM
[23]
  GI50: 0.0446 µM
  TGI: 4.38 µM
[24]
  GI50: 0.0378 µM
  TGI: 0.487 µM
[25]
  GI50: 7.65 µM
  TGI: 17.3 µM
[26]
  GI50: 0.103 µM
  TGI: 2.68 µM
[27]
  GI50: 0.0251 µM
  TGI: 2.6 µM
[28]
  GI50: < 0.01 µM
  TGI: 1.19 µM
[29]
  GI50: 0.0194 µM
  TGI: 5.48 µM
[30]
  GI50: 0.0343 µM
  TGI: 0.651 µM
[31]
  GI50: < 0.01 µM
  TGI: < 0.0116 µM
[32]
  GI50: 0.485 µM
  TGI: 15.8 µM
[33]
  GI50: 0.0321 µM
  TGI: 18.5 µM
[34]
  GI50: < 0.0154 µM
  TGI: 0.323 µM
[35]
  GI50: 0.28 µM
  TGI: 5.54 µM
[36]
  GI50: 0.0367 µM
  TGI: 14.7 µM
[37]
  GI50: < 0.0129 µM
  TGI: 1.06 µM
[38]
  GI50: 0.0552 µM
  TGI: 5.15 µM
[39]
  GI50: 0.138 µM
  TGI: 1.69 µM
[41]
  GI50: < 0.0117 µM
  TGI: 1.33 µM
[42]
  GI50: 1.12 µM
  TGI: 3 µM
[43]
  GI50: 0.03 µM
  TGI: 1.55 µM
[44]
  GI50: 0.0392 µM
  TGI: 3.46 µM
[45]
  GI50: < 0.0177 µM
  TGI: 1.66 µM
[46]
  GI50: < 0.0173 µM
  TGI: 5.24 µM
[47]
  GI50: < 0.01 µM
  TGI: 2.21 µM
[48]
  GI50: 0.0306 µM
  TGI: 6.25 µM
[49]
  GI50: 10.6 µM
  TGI: 25.9 µM
[50]
  GI50: 0.0349 µM
  TGI: 2.05 µM
[51]
  GI50: < 0.01 µM
  TGI: 0.105 µM
[52]
  GI50: 0.0239 µM
  TGI: 5.59 µM
[53]
  GI50: 0.0351 µM
  TGI: 4.53 µM
[54]
  GI50: 0.0166 µM
  TGI: 6.26 µM
[55]
  GI50: 1.81 µM
  TGI: 18.7 µM
[56]
  GI50: 0.0431 µM
  TGI: 8.78 µM
[57]
  GI50: 0.0366 µM
  TGI: 5.74 µM
